A short description of data set [1]: Lys cleavage fragments in NHP plasma after s.c. injection (UPLC-ESI-MS). The note with it: after s.c. 2 mg/kg Cp40-KKK, both animals. Format: in vivo, cynomolgus monkeys.
Data set [2] in a line: Pharmacokinetics in NHP plasma after single s.c. injection.
Data set [3] relates to classical pathway activation (C3b deposition). Nature of the data set: Classical pathway activation ELISA (C3b deposition) with or without rabbit vitreous. The note with it: in the absence of vitreous. Format: biochemical, human. The procedure:
An alternative explanation to the one presented above is that the vitreous contains additional unidentified factors that associate with the Cp40-KKK analog. To investigate whether an unidentified vitreous factor impacts the complement inhibitory activity of lysine containing compounds, complement activation assays were performed using vitreous samples. Briefly, human plasma was incubated with OVA-anti-OVA immune-complexes in the presence of serial dilutions of the Cp40-based analogs mixed with rabbit vitreous. Levels of classical pathway activation (C3b deposition) were determined by ELISA using a polyclonal anti-human C3 antibody conjugated with HRP (MP Biomedicals, Solon, Ohio) (FIG. 20).

The nature of data set [4]: Solubility of Cp40-based analogs in PBS.
Data set [5] in a line: Pharmacokinetics after single i.v. injection. Set-up: species or system cynomolgus monkeys. The note with it: cynomolgus monkey, in vivo, iv. How it is done: In vivo pharmacokinetic studies were conducted, in which cynomolgus monkeys were administered single i.v. injections of mPEG(1k)-Cp40, mPEG(3k)-Cp40, Cp40-KK, or Cp40-KKK.
A short description of data set [6]: Plasma concentration after multiple injections in NHP. Format: in vivo, cynomolgus monkeys. The note with it: cynomolgus monkey, plasma, sc; 2 mg/kg every 48 hrs; read-out: observed Cmax after multiple s.c. dosing.
Data set [7] deals with T1, purified human C3b (Homo sapiens, UniProt P01024).
T1 construct: purchased Complement Technology, Inc., Tyler, Tex
T1 sequence (P01024 23-667 limits assumed): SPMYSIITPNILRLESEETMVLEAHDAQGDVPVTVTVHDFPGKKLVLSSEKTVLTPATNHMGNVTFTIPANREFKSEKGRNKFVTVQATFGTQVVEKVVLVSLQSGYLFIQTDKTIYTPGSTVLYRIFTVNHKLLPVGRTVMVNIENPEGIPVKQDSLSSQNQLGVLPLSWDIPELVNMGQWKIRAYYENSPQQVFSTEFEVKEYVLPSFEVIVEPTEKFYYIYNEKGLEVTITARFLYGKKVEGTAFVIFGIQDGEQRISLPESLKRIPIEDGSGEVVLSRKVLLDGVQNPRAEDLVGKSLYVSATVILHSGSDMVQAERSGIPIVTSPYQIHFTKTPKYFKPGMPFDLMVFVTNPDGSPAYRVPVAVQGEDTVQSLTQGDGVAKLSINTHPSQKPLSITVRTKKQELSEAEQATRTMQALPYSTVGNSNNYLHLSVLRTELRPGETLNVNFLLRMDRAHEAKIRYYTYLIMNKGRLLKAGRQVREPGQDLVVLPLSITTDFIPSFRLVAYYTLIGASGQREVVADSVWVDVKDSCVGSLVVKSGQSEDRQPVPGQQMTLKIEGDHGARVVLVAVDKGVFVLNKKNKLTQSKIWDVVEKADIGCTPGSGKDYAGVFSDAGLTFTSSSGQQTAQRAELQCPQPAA
T1 sequence (P01024 749-1663 partner limits assumed): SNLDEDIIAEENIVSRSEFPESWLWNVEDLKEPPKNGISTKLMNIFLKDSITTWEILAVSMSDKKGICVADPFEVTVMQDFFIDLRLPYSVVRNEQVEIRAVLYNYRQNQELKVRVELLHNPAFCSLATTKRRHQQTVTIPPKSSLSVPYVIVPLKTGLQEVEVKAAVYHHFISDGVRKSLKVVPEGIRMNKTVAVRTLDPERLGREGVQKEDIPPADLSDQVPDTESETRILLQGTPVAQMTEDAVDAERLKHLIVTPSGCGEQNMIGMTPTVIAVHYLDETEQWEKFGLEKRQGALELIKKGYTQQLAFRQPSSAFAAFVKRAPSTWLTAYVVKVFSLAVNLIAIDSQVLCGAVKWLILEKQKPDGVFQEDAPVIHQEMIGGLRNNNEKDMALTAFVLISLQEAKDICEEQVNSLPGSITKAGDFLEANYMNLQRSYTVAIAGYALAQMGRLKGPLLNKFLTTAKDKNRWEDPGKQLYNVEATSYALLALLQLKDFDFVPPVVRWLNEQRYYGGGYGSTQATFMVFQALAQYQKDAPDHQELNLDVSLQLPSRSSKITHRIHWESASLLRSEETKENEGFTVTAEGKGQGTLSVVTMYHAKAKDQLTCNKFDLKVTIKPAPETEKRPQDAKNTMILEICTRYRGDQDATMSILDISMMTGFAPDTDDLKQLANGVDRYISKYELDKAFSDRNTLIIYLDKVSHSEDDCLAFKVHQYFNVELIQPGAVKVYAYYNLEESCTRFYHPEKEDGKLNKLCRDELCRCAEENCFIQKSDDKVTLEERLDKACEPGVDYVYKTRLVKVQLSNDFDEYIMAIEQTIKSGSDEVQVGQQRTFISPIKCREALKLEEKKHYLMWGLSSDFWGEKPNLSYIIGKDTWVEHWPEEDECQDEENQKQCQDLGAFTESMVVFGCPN
The experiment in a line: SPR C3b binding of Cp40-KKK in vitreous samples. To be noted: for C3b-binding signal: day 14. The procedure: To confirm that the compound present in the NHP vitreous maintains C3b-binding activity, which is a prerequisite for eliciting its inhibitory action across all complement pathways, surface plasmon resonance (SPR) binding experiments were conducted. Briefly, for a positive binding control, serial dilutions of Cp40-KKK (16, 8, 4, and 2 nM) were added to rabbit vitreous samples and flowed onto a Biacore CM5 chip immobilized with purified human C3b (Complement Technology Inc, Tyler, Tex.) (see FIG. 19A). Next, vitreous samples were collected from a Cp40-KKK injected eye at day 14 post-injection and subjected to heat-inactivation at 95° C. for 5 min. Both heat-inactivated and non-heat-inactivated samples were flowed onto a CM5 chip immobilized with purified human C3b as indicated above (FIG. 19B).

The nature of data set [8]: Pharmacokinetics after single i.m. injection. The note with it: cynomolgus monkey, in vivo, im, 25 mg/kg.
Data set [9] is described as follows: Residence time in the vitreous after intravitreal injection (WES / SPR competition assay). In kind it is in vivo, cynomolgus monkeys. The note with it: for detection in the vitreous at time points post-injection: days 14-90. How it is done: To determine the residence time of mPEG(3k)-Cp40, mPEG(1k)-Cp40, Cp40-KK, and Cp40-KKK in the vitreous of cynomolgus macaques, these Cp40-based analogs were administered intravitreally (i.v.t.) to the animals after induction of light ketamine anesthesia (10-15 mg/kg, by intramuscular injection (i.m.)) and dilation of the pupils with tropicamide/phenylephrine ophthalmic solution (see Table 6 for study design).
For i.v.t. injection, the cynomolgus monkeys were anesthetized with a combination of ketamine (15-25 mg/kg, i.m.) and xylazine (2 mg/kg, i.m.) and the eye was cleaned with povidone-iodine solution. After application of oxybuprocaine hydrochloride solution (Benoxil® ophthalmic solution 0.4%) to the cornea as a local anesthetic, the Cp40-based analogs were administered to the animals by i.v.t. injection into either the right (G1, G3) or left (G2, G4) eye of each animal. Immediately following each injection, a single topical dose of 0.5% levofloxacin was administered. After i.v.t. injection of mPEG(3k)-Cp40, mPEG(1k)-Cp40, Cp40-KK, and Cp40-KKK, vitreous fluid samples (about 50 μL each) were withdrawn from Cp40-based analog-treated eyes on days 14, 28, 42, (G1, G2, G3, G4), 56, 73, 90 (G1, G2) (this was done either three times or six times). Samples were collected on ice and stored in a deep freezer (−79.3 to −68.5° C.) until further analysis. On day 73 and 90, about 100 μL of vitreous fluid from G1 and G2 were withdrawn. Presence and concentration of the Cp40-based analogs was determined using either the simple western technology (WES, ProteinSimple, San Jose, Calif.), or surface plasmon resonance (SPR)-based real-time measurement of binding kinetics on a Cp40-KKK immobilized chip (see detailed methods below). Similar results with regard to the intravitreal residence time and concentration levels of the test compounds were obtained regardless of the quantification method selected.
To quantify the levels of all test compounds in vitreous samples collected at different time points following i.v.t. injection (see FIG. 15), WES analysis was performed on a WES instrument (ProteinSimple, San Jose, Calif.) using a 2 to 40 kDa Separation Module and Anti-Rabbit Detection Module according to the manufacturers' instructions. In brief, undiluted eye vitreous samples were mixed with a Fluorescent Master Mix and heated at 95° C. for 5 min. The samples, blocking reagent, primary antibodies (in house developed anti-Cp40; 1:1000 in blocking reagent), HRP-conjugated secondary antibody (anti-rabbit IgG) and chemiluminescent substrate were pipetted into the plate (part of Separation Module). The used instrument settings were: stacking and separation at 375 V for 27 min; blocking reagent for 30 min, primary and secondary antibody both for 30 min; Luminol/peroxide chemiluminescence detection for ˜15 min (exposures of 5, 15, 30, 60, 120, 240, and 480 s). The resulting electropherograms were evaluated using the Compass software (ProteinSimple, San Jose, Calif.). The following criteria were used to discriminate low peptide signals from background: The peak signal-to-noise (S/N) ratio given by the software must be ≥10, and the peak height/baseline ratio (calculated manually from the peak height and baseline values given by the software) must be equal to or greater than 3. A five-point standard curve of known concentrations (100-2,000 nM) of peptide spiked in rabbit vitreous was used to calculate peptide concentration in the vitreous samples using the Compass software (Compass Software Inc., Atlanta, Ga.). […] Shown in FIG. 15 is a representative standard curve generated using the WES system and bands obtained upon running pre-determined amounts of purified peptide spiked into rabbit vitreous samples.
To corroborate the WES-based measurements for all test compounds, an SPR-based competition assay was developed for detecting Cp40 and Cp40 analogs in biological samples. […] The samples were heated at 95° C. for 5 min. […]

Data set [10] deals with T2, human C3b (Homo sapiens, UniProt P01024).
T2 construct: purchased Complement Technology, Inc., Tyler, Tex
T2 sequence (P01024 23-667 limits assumed): as the sequence (P01024 23-667 limits assumed) above
T2 sequence (P01024 749-1663 partner limits assumed): as the sequence (P01024 749-1663 partner limits assumed) above
The experiment in a line: SPR binding affinity and kinetics with C3b. To be noted: 25° C., 1:1 Langmuir model; read-out: ka, association constant.

For data set [11], the system named is C3. The experiment in a line: C3 saturation in NHP plasma after single s.c. injection. In kind it is in vivo, cynomolgus monkeys (Macaca fascicularis). The note with it: single s.c. 2 mg/kg.
The conditions of data set [12]: cynomolgus monkey, in vivo, sc, 2 mg/kg.
Where [13] appears, read: single s.c. 2 mg/kg, NHP plasma, two animals, listed as Cp40-KKK (SUM), 2 mg/kg.
Where [14] appears, read: at the solubility concentration.

Where “and” joins values, the source holds several entries; their conditions need not be identical. Equal entries are not always repeated. Where two headings read alike, the source gives them in different places. Marks after values point to notes of the source that are not given here.

For `CC[C@H](C)[C@H](NC(=O)[C@H](N)Cc1ccc(O)cc1)C(=O)N[C@H]1CSSC[C@@H](C(=O)N(C)[C@H](C(=O)N[C@@H](CCCCN)C(=O)N[C@@H](CCCCN)C(=O)N[C@@H](CCCCN)C(N)=O)[C@@H](C)CC)NC(=O)[C@H](CCCNC(=N)N)NC(=O)[C@H](Cc2c[nH]cn2)NC(=O)[C@H](C)NC(=O)CN(C)C(=O)[C@H](Cc2c[nH]c3ccccc23)NC(=O)[C@H](CC(=O)O)NC(=O)[C@H](CCC(N)=O)NC(=O)[C@H](Cc2cn(C)c3ccccc23)NC(=O)[C@H](C(C)C)NC1=O` [Cp40-KKK, DTyr-Ile-[Cys-Val-Trp(Me)-Gln-Asn-Trp-Sar-Ala-His-Arg-Cys]-mIle-Lys-Lys-Lys-NH2], the “concentration of intact Cp40-KKK in plasma at any time point” value in data set [1] was no more than 2 µM. The molecule also gave an apparent clearance CL/F in [2] (male, cynomolgus monkey, plasma, sc, 2 mg/kg) of roughly 45 mL/min/kg. Also, the AUC(0-t) is roughly 616 µM·h in data set [2] (male, cynomolgus monkey, plasma, sc, 2 mg/kg, AUC0-t (0-120 h), single s.c. 2 mg/kg, NHP plasma, two animals) and 312 µM·h in data set [5] (single i.v. injection 2 mg/kg, read-out: AUC 0-120). Besides, the total exposure AUC(0-inf) in data set [2] (male, cynomolgus monkey, plasma, sc, 2 mg/kg, AUCinf, single s.c. 2 mg/kg, NHP plasma, two animals) turned out to be 805 µM·h. For the same molecule, the Cmax in data set [2] (male, cynomolgus monkey, plasma, sc, 2 mg/kg, Cmax, single s.c. 2 mg/kg, NHP plasma, two animals) is roughly 13.5 µM; in data set [2] (setting [13]), 11.9 µM and 15.1 µM; in data set [6], no less than 20 µM. Moreover, the half-life was roughly 44.3 h in data set [2] (male, cynomolgus monkey, plasma, sc, 2 mg/kg, t1/2, single s.c. 2 mg/kg, NHP plasma, two animals); 35.3 h in data set [5] (single i.v. injection 2 mg/kg); roughly 192 h in data set [8]. Besides, the “AUC0-t increased vs Cp40” value in data set [2] (s.c. 2 mg/kg) is on record as roughly 2.6 fold. For the same molecule, the “CL/F decreased vs Cp40” value in [2] (s.c. 2 mg/kg) is roughly 3 fold. The “cmax higher than Cp40” value in data set [2] (s.c. 2 mg/kg) was roughly 2 fold. In addition, the t1/2 in [2] (single s.c. 2 mg/kg, NHP plasma, two animals, 2 mg/kg) was 42 h and 47 h; in data set [2] (setting [13]) it was 46.7 h and 41.8 h. Moreover, in data set [2] (setting [13]), the “AUC0-t (0-120 h)” value is 658 µM·h and 573 µM·h. This molecule also yielded an AUCinf in data set [2] (setting [13]) of 685 µM·h. In data set [3], the “complement classical pathway inhibitory activity” value is on record as “inhibitory activity in a dose-dependent manner”. Moreover, the results for the “pH of the peptide solution in PBS” value in data set [4] (after additional lyophilization from H2O), in data set [4] (setting [14]) and in data set [4] (pH adjusted upon addition of PBS) were 9.5, 8.5 and 7.5*, respectively. Besides, in data set [5], the “Lys cleavage in plasma upon i.v. injection” value is “metabolized into Cp40-KK and small amounts of Cp40-K”. Moreover, the C3b-binding signal in data set [7] (heat-inactivated vitreous sample) came to 10 relative units; in [7] (non-heat inactivated vitreous sample) it was 2 relative units. For the same molecule, the “binding to C3b” value in data set [7] (spiked into rabbit vitreous, 2-16 nM) was “binds to C3b in a dose-dependent manner”. Besides, the “C3b-binding activity of compound present in NHP vitreous” value in [7] (vitreous from injected eye, day 14 post-injection) is given as “maintains its C3b-binding activity”. The intravitreal residence time in data set [9] (after i.v.t.) is no less than 3 months. Moreover, the “vitreous residence time at C3 saturating levels” value in [9] (single i.v.t. injection 0.5 mg) is no less than 90 days. In data set [9] (single i.v.t. injection 0.5 mg), the “detection in the vitreous at time points post-injection” value is on record as “detected even at day 90 post-treatment”. Moreover, the kon in [10] came out at 3.83e+06 M⁻¹ s⁻¹.

Consider “mPEG(3k)-Cp40: N-terminus of Cp40 coupled to polydisperse PEG chain of 3 kDa via amide coupling”, for which, in [11], the “C3 saturation time (peptide above plasma level of C3)” value is recorded as roughly 34 h. Further, the CL/F in data set [12] was roughly 43.5 mL/min/kg. In addition, in [4] (PBS (pH 7.4)), the “Conc. (solubility in PBS)” value worked out at 270 mg/mL. Besides, the “pH of the peptide solution in PBS” value in data set [4] (setting [14]) is recorded as 7. Also, in data set [9] (single i.v.t. injection 0.5 mg), the “detection in the vitreous at time points post-injection” value is “detected at day 14 post injection but not in later time points”.

Values taken from patent publication US10800812B2, “Compstatin analogs with increased solubility and improved pharmacokinetic properties” (The Trustees of the University of Pennsylvania, priority 2018, dated 2020).
